The source of these data is ChEMBL document CHEMBL1165959, “Novel tricyclic Delta(2)-isoxazoline and 3-oxo-2-methyl-isoxazolidine derivatives: synthesis and binding affinity at neuronal nicotinic acetylcholine receptor subtypes” (Bioorg Med Chem, 2010).

Where only a bound is given, the exact number is not on record here.

Assay [1] deals with Neuronal acetylcholine receptor; alpha4/beta2 (Rattus norvegicus, UniProt P09483+P12390). The assay is described as follows: Displacement of (+/-)-[3H]epibatidine from alpha4beta2 nAChR in rat cortical membrane. Type of assay: cell membranes.
Chain of Neuronal acetylcholine receptor; alpha4/beta2 (P09483 whole entry): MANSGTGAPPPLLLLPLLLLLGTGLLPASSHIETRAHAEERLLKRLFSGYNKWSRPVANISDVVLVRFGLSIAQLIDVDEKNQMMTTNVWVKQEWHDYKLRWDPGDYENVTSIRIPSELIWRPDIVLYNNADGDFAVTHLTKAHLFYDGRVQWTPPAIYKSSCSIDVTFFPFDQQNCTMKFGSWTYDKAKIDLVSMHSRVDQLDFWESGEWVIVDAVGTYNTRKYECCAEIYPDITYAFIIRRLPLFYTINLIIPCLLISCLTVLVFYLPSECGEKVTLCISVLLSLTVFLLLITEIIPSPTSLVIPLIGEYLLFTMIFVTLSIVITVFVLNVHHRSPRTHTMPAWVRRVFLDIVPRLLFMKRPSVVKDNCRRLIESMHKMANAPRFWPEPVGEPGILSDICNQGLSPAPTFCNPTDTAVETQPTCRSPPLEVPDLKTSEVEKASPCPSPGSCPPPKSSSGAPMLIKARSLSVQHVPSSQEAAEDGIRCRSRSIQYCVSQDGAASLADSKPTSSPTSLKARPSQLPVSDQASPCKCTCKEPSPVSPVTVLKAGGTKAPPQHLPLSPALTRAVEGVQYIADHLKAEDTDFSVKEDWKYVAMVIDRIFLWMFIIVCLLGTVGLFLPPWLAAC
Chain of Neuronal acetylcholine receptor; alpha4/beta2 (P12390 whole entry): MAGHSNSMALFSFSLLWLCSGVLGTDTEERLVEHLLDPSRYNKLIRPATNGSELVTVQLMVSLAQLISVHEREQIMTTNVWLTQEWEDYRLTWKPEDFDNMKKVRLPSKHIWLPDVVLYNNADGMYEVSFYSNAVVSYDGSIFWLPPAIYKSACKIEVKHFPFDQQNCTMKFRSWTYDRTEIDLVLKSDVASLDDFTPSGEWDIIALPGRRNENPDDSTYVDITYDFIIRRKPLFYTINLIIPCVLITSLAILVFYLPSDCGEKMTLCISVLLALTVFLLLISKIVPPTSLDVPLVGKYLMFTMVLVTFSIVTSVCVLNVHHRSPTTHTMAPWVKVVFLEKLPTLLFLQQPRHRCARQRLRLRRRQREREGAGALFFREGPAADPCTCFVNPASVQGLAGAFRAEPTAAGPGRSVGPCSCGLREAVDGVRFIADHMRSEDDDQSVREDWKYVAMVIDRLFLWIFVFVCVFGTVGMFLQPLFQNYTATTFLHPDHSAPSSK
In assay [2] the target is Neuronal acetylcholine receptor subunit alpha-7 (Rattus norvegicus, UniProt Q05941). The assay is described as follows: Displacement of [125I]alpha-Bungarotoxin from alpha7 nAChR in rat cortical membrane. Type of assay: cell membranes.
Chain of Neuronal acetylcholine receptor subunit alpha-7 (Q05941 whole entry): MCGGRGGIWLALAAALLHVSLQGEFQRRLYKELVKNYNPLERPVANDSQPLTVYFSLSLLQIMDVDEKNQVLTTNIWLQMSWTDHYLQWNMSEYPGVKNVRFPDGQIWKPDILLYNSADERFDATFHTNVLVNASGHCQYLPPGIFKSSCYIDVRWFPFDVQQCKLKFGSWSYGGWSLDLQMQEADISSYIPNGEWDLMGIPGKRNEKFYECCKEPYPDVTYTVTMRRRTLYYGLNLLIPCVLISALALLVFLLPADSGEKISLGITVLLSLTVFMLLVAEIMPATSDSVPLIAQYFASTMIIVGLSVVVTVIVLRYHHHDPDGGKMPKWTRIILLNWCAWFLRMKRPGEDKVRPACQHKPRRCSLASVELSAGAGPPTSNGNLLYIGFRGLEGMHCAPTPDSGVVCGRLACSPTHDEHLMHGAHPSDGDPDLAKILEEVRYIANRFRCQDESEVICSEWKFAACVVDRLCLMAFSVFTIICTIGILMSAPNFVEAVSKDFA

What is called Ki is a dissociation constant, usually derived from enzyme kinetics or from competition with a known ligand. A lower Ki goes with a stronger hold on the target. Regarding `BrC1=NOC2CC3CNCC(C3)C12` (centres undefined), the Ki in assay [1] stood at 0.92 µM; in assay [2], 28.5 µM.
In the case of `COC1=NOC2C3CCC(CC12)N3` (centres undefined), the inhibitory constant (Ki) in assay [1] stood at 4.5 µM; in assay [2], 28.2 µM.
For `CN1OC2CC3CNCC(C3)C2C1=O` (centres undefined) the same measures were 79 µM and greater than 100 µM.
For `BrC1=NOC2C3CCC(CC12)N3` (centres undefined) the same measures were 0.75 µM and 20 µM.
For `COC1=NOC2CC3CCC(N3)C12` (centres undefined) the same measures were 53 µM and 68 µM.
With `CC(=O)C1=CC[C@H]2CC[C@@H]1N2`, the Ki was 0.094 µM in assay [1] and greater than 10 µM in assay [2].
For `BrC1=NOC2CC3CCC(N3)C12` (centres undefined) the same measures were 260 µM and 109 µM.
For the compound `CN1OC2C3CNCC(C3)CC2C1=O` (centres undefined), the Ki is 1.8 µM in assay [1] and 9.5 µM in assay [2].
On the same counts, the results for `CN1OC2CC3CCC(N3)C2C1=O` (centres undefined) are 50 µM and greater than 100 µM.
`CN1OC2C3CCC(CC2C1=O)N3` (centres undefined): the Ki in assay [1] was 100 µM; in assay [2] it was greater than 100 µM.
On the same counts, the results for `COC1=NOC2CC3CNCC(C3)C12` (centres undefined) are 31 µM and 170 µM.
`O=c1cccc2n1C[C@@H]1CNC[C@H]2C1` [CYTISINICLINE]: the Ki in assay [1] came out at 0.0004 µM; in assay [2], 0.3 µM.
